According to patent US20240239743A1, “1-(4-{1-[(E)-4-CYCLOHEXYL-3-TRIFLUOROMETHYLBENZYLOXYIMINO]-ETHYL}-2-ETHYL-BENZYL)-AZETIDINE-3-CARBOXYLIC ACID, (E)-BUT-2-ENEDIOIC ACID” (Novartis AG, priority 2008, published 2024):

Experiments:
[1] = pressure of 10 tons for 5 minutes; Raman microscope
Method: Crystalline form A was also tested for pressure stability by exposing a few milligrams of this form to a pressure of 10 tons for 5 minutes.

[2] = Dynamic Vapour Sorption (hygroscopicity); format: physicochemical; conditions: 50-0-95-50% r.h.
Excerpt: Dynamic Vapour Sorption measurements were taken using a DVS-1 water vapour sorption analyzer (Surface Measurement Systems Ltd.) or a Projekt Messtechnik SPS11-100n. The sample was allowed to equilibrate at 50% r.h. before starting a pre-defined humidity program (50-0-95-50% r.h., scanning with 5% Δr.h. hour-1 and with several isohumid equilibration periods).

[3] = Stability of hemifumarate salt solution relative to free base solution at elevated temperature; format: physicochemical; conditions: solution/suspension in ethanol; 40° C., 50° C. and 60° C. for one week; compared with free base
Method: 30 g of compound I was prepared using the method of Example 3 of WO2004/103306. The hemifumarate salt of the invention was then prepared by reacting a suspension of 30.0 g of compound I and […] fumaric acid (5% conc.) in 200 g ethanol absolute (>99.9%) at room temperature (25° C.).
The stability of the hemifumarate salt solution relative to the free base solution was then tested by subjecting both solutions to conditions of elevated temperature (40° C., 50° C. and 60° C.) for a period of one week.

SMILES | pressure stability (change in crystal form) [1] | hygroscopicity [2] | stability of the hemifumarate salt solution relative to the free base solution [3]
CCc1cc(/C(C)=N/OCc2ccc(C3CCCCC3)c(C(F)(F)F)c2)ccc1CN1CC(C(=O)O)C1.CCc1cc(/C(C)=N/OCc2ccc(C3CCCCC3)c(C(F)(F)F)c2)ccc1CN1CC(C(=O)O)C1.O=C(O)/C=C/C(=O)O [Crystalline Form A] | no change in form was observed | low hygroscopicity | 
CCc1cc(/C(C)=N/OCc2ccc(C3CCCCC3)c(C(F)(F)F)c2)ccc1CN1CC(C(=O)O)C1.O=C(O)/C=C/C(=O)O [hemifumarate salt, 1-(4-{1-[(E)-4-Cyclohexyl-3-trifluoromethyl-benzyloxyimino]-ethyl}-2-ethyl-benzyl)-azetidine-3-carboxylic acid, (E)-but-2-enedioic acid] |  |  | superior stability
